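Tested at 5 concentrations; 48 h exposure; 96-well plates; endpoints linearly interpolated, else capped at highest concentration. GI50 = concentration required for 50% inhibition of growth.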 Calls of active or inactive are those of the source. Rule as the data show it: active = GI50 up to about 1.1 µM and inactive = higher. Residues, ends and D or L forms follow the SMILES beside them. *: point of attachment. Boc = CC(C)(C)OC(=O)*; OBn = c1ccc(CO*)cc1
Experiments:
Experiment in all cases: inhibition of tumour cell growth, NCI panel, 48 h
A498 = system: A498
CCRF-CEM = system: CCRF-CEM
HCT-15 = system: HCT-15
HOP-62 = system: HOP-62
HOP-92 = system: HOP-92
HT-29 = system: HT-29
KM12 = system: KM12
MDA-N = system: MDA-N
NCI-H23 = system: NCI-H23
NCI-H460 = system: NCI-H460
NCI-H522 = system: NCI-H522
NCI/ADR-RES = system: NCI/ADR-RES
OVCAR-3 = system: OVCAR-3
OVCAR-4 = system: OVCAR-4
RPMI-8226 = system: RPMI-8226
SK-MEL-28 = system: SK-MEL-28
SK-MEL-2 = system: SK-MEL-2
UACC-62 = system: UACC-62
HL-60 = system: HL-60
SNB-75 = system: SNB-75

Compound | GI50 (A498) | GI50 (CCRF-CEM) | GI50 (HCT-15) [µM] | GI50 (HOP-62) | GI50 (HOP-92) | GI50 (HT-29) | GI50 (KM12) | GI50 (MDA-N) | GI50 (NCI-H23) | GI50 (NCI-H460) | GI50 (NCI-H522) | GI50 (NCI/ADR-RES) | GI50 (OVCAR-3) | GI50 (OVCAR-4) | GI50 (RPMI-8226) | GI50 (SK-MEL-28) | GI50 (SK-MEL-2) | GI50 (UACC-62) | GI50 (HL-60) | GI50 (SNB-75)
CN(C)/C=C/c1ccncc1 | > 100 µM (inactive) | 48.6 µM (inactive) | > 100 | > 100 µM (inactive) | > 100 µM (inactive) | > 100 µM (inactive) | > 100 µM (inactive) | > 100 µM (inactive) | > 100 µM (inactive) | > 100 µM (inactive) | > 100 µM (inactive) | > 100 µM (inactive) | > 100 µM (inactive) | > 100 µM (inactive) | > 100 µM (inactive) | > 100 µM (inactive) | > 100 µM (inactive) | > 100 µM (inactive) | – | –
CN(C)CC1CCC/C(=C\c2ccc(OC(=O)/C=C/c3ccccc3)cc2)C1=O (stereo not given) | 7.28 µM (inactive) | 0.265 µM (active) | 1.56 | 3.48 µM (inactive) | 2.22 µM (inactive) | 1.87 µM (inactive) | 1.28 µM (inactive) | 2.52 µM (inactive) | 1.91 µM (inactive) | 4.88 µM (inactive) | – | 1.94 µM (inactive) | 1.97 µM (inactive) | 2.35 µM (inactive) | 0.656 µM (active) | 2.65 µM (inactive) | 3.52 µM (inactive) | 3.34 µM (inactive) | 1.85 µM (inactive) | 6.04 µM (inactive)
CC1CC[C@@]2(OC1)OC1C[C@H]3[C@@H]4CCC5CC(O)CC[C@]5(C)[C@H]4C/C(=N\N(C)C)[C@]3(C)C1[C@@H]2C (stereo not given in full) | 23 µM (inactive) | 37.8 µM (inactive) | 23.4 | 16.7 µM (inactive) | 52.8 µM (inactive) | 19.6 µM (inactive) | 25.5 µM (inactive) | 19.9 µM (inactive) | 20.3 µM (inactive) | 30.5 µM (inactive) | – | 19.5 µM (inactive) | 17.9 µM (inactive) | 38.3 µM (inactive) | 26.9 µM (inactive) | 43.7 µM (inactive) | 20.5 µM (inactive) | 27.6 µM (inactive) | 22.2 µM (inactive) | –
CC1CC(NN(C)C)C2(C(N)=O)C(N)=NC(=O)C12C#N (stereo not given) | > 100 µM (inactive) | > 100 µM (inactive) | > 100 | > 100 µM (inactive) | > 100 µM (inactive) | > 100 µM (inactive) | > 100 µM (inactive) | > 100 µM (inactive) | > 100 µM (inactive) | – | > 100 µM (inactive) | > 100 µM (inactive) | – | – | > 100 µM (inactive) | > 100 µM (inactive) | > 100 µM (inactive) | > 100 µM (inactive) | > 10 µM (inactive) | 10 µM (inactive)
CCOC(=O)c1sc2c(c1OC(=O)c1cc(OC)c(OC)c(OC)c1)c(=O)n(-c1ccccc1)c(=S)n2-c1ccccc1 | > 100 µM (inactive) | 17.5 µM (inactive) | 47.3 | > 100 µM (inactive) | 22.2 µM (inactive) | 98.9 µM (inactive) | > 100 µM (inactive) | > 100 µM (inactive) | 53.1 µM (inactive) | 51.5 µM (inactive) | 4.81 µM (inactive) | 75.3 µM (inactive) | 87.7 µM (inactive) | 70.8 µM (inactive) | 93.1 µM (inactive) | > 100 µM (inactive) | – | 51.8 µM (inactive) | 62.8 µM (inactive) | > 100 µM (inactive)
COc1ccccc1C(O)[C@@H]1C[C@@H]2[C@H]3CC[C@@](C)([C@@H]2O1)C3(C)C (stereo not given in full) | 15.4 µM (inactive) | 20.8 µM (inactive) | 20.7 | 18.7 µM (inactive) | 15.8 µM (inactive) | 19.4 µM (inactive) | 20.8 µM (inactive) | 16.7 µM (inactive) | 19.5 µM (inactive) | 19.5 µM (inactive) | 17.4 µM (inactive) | 17.5 µM (inactive) | 17.1 µM (inactive) | – | 25.2 µM (inactive) | 17.1 µM (inactive) | 18.1 µM (inactive) | 16.6 µM (inactive) | 20 µM (inactive) | 16.9 µM (inactive)
O=C1OCCC[C@H]2O[C@@H](COCc3ccccc3)C[C@@H]12 | > 100 µM (inactive) | > 100 µM (inactive) | > 100 | > 100 µM (inactive) | > 100 µM (inactive) | > 100 µM (inactive) | > 100 µM (inactive) | > 100 µM (inactive) | > 100 µM (inactive) | > 100 µM (inactive) | – | > 100 µM (inactive) | > 100 µM (inactive) | > 100 µM (inactive) | > 100 µM (inactive) | > 100 µM (inactive) | > 100 µM (inactive) | > 100 µM (inactive) | > 100 µM (inactive) | > 100 µM (inactive)
NCCC(N)C(=O)O (stereo not given) | > 100 µM (inactive) | > 100 µM (inactive) | > 100 | > 100 µM (inactive) | > 100 µM (inactive) | > 100 µM (inactive) | > 100 µM (inactive) | > 100 µM (inactive) | > 100 µM (inactive) | > 100 µM (inactive) | > 100 µM (inactive) | > 100 µM (inactive) | > 100 µM (inactive) | > 100 µM (inactive) | > 100 µM (inactive) | > 100 µM (inactive) | > 100 µM (inactive) | > 100 µM (inactive) | > 100 µM (inactive) | –
Cc1ccc(NC(S)=Nc2c(C)n(C)n(-c3ccccc3)c2=O)cc1 | > 100 µM (inactive) | > 100 µM (inactive) | > 100 | > 100 µM (inactive) | > 100 µM (inactive) | > 100 µM (inactive) | > 100 µM (inactive) | > 100 µM (inactive) | > 100 µM (inactive) | > 100 µM (inactive) | > 100 µM (inactive) | > 100 µM (inactive) | > 100 µM (inactive) | – | > 100 µM (inactive) | > 100 µM (inactive) | – | > 100 µM (inactive) | 32.2 µM (inactive) | > 100 µM (inactive)
O=C(CC(C(=O)c1ccsc1)c1cccs1)c1ccsc1 (stereo not given) | 81.8 µM (inactive) | 15.2 µM (inactive) | 45.6 | > 100 µM (inactive) | – | 63.1 µM (inactive) | 31.5 µM (inactive) | 30.1 µM (inactive) | 32.6 µM (inactive) | 53.8 µM (inactive) | – | 17.5 µM (inactive) | – | 73.5 µM (inactive) | 12.1 µM (inactive) | 76.2 µM (inactive) | 94 µM (inactive) | 31.5 µM (inactive) | 31.8 µM (inactive) | 27.4 µM (inactive)
CO[C@]12CC(=O)C3(C(C[C@H]4CC5CC[C@H]6C[C@@H](OC(C)=O)CC[C@]6(OC(C)=O)C5C[C@@]43C)C1)C1C[C@H]3[C@@H]4CC[C@H]5C[C@@H](OC(C)=O)CC[C@]5(OC(C)=O)[C@H]4CC[C@]3(C)C12 (stereo not given in full) | > 100 µM (inactive) | 24.5 µM (inactive) | 90.2 | > 100 µM (inactive) | > 100 µM (inactive) | 82.4 µM (inactive) | 46.8 µM (inactive) | 98.2 µM (inactive) | 83.4 µM (inactive) | 66.5 µM (inactive) | – | 43.6 µM (inactive) | > 100 µM (inactive) | 17.1 µM (inactive) | 37.2 µM (inactive) | > 100 µM (inactive) | > 100 µM (inactive) | 84.3 µM (inactive) | – | > 100 µM (inactive)
CC1(C)N=[N+]([O-])C1(C)C | > 100 µM (inactive) | > 100 µM (inactive) | > 100 | – | – | > 100 µM (inactive) | > 100 µM (inactive) | > 100 µM (inactive) | > 100 µM (inactive) | > 100 µM (inactive) | > 100 µM (inactive) | > 100 µM (inactive) | > 100 µM (inactive) | > 100 µM (inactive) | > 100 µM (inactive) | > 100 µM (inactive) | > 100 µM (inactive) | > 100 µM (inactive) | > 100 µM (inactive) | > 100 µM (inactive)
CC(C)C(NC(=O)C(Cc1ccccc1)NC(=O)OC(C)(C)C)C(=O)NCC(=O)OCc1ccccc1 (stereo not drawn) (Boc-Phe-Val-Gly-OBn; configuration not given here) | 44.6 µM (inactive) | 20 µM (inactive) | 12.9 | 19.2 µM (inactive) | – | 17.5 µM (inactive) | – | 19.4 µM (inactive) | 16.8 µM (inactive) | 18.8 µM (inactive) | 6.55 µM (inactive) | > 100 µM (inactive) | 14.4 µM (inactive) | 3.87 µM (inactive) | 16.5 µM (inactive) | 16.3 µM (inactive) | 17.8 µM (inactive) | 16.9 µM (inactive) | 13.4 µM (inactive) | 20.5 µM (inactive)
CC(C)(C)OC(=O)n1c(-c2ccccc2F)cc(=O)c2cc3c(cc21)OCO3 | 0.141 µM (active) | 0.0638 µM (active) | 0.0505 | 0.0863 µM (active) | 7.24 µM (inactive) | 0.0497 µM (active) | 0.028 µM (active) | < 0.01 µM (active) | 0.398 µM (active) | 0.0656 µM (active) | 0.0267 µM (active) | 0.0231 µM (active) | 0.03 µM (active) | – | 0.0364 µM (active) | > 100 µM (inactive) | 0.0531 µM (active) | 0.0588 µM (active) | 0.0451 µM (active) | 0.0318 µM (active)
CNC(=S)NNc1ncnc2c1c(-c1ccc(Cl)cc1)cn2-c1ccc(C)cc1 | 20.8 µM (inactive) | 0.897 µM (active) | 8.39 | 17.6 µM (inactive) | 15.5 µM (inactive) | 14.9 µM (inactive) | 7.71 µM (inactive) | 8.61 µM (inactive) | 13.2 µM (inactive) | 1.95 µM (inactive) | 7.76 µM (inactive) | 11.6 µM (inactive) | 11.5 µM (inactive) | 15.6 µM (inactive) | 3.13 µM (inactive) | 11.4 µM (inactive) | 13.6 µM (inactive) | 14.5 µM (inactive) | 2.81 µM (inactive) | –
